We go through one molecule from US20260373132A1, “PERK INHIBITORHC-5404 IN COMBINATION WITH ANTI-PD-1 ANTIBODY AND/OR AN ANTIANGIOGENETIC AGENT FOR USE IN THE TREATMENT OF CANCER” (HIBERCELL, INC., priority 2022, published 2026).

Test [1] relates to mouse bone marrow-derived MDSCs / T cells. Put plainly: mouse T cell suppression assay with bone marrow-derived MDSCs. The class given is cell-based. As to conditions: LSLG + 500 nM (FIG. 11A, 11C). The method, then:
Mouse MDSC Preparation: Single cell suspensions from bone marrow were prepared from the tibia and femur bone of C57BL/6 mice. Cells were cultured in RPMI complete medium (RPMI medium supplemented with 10% FBS, 10 mM HEPES, 1 mM Sodium pyruvate, 50 uM 2-ME, 1 mM MEM NEAA, 1× penicillin-streptomycin and 2 mM L-glutamax) at 2.5×10^6 cells per 10 ml in a […] tissue culture dish for 4 days in a 37 0 °C, 5% CO2 humidified incubator. Cytokines GM-CSF (10 ng/ml) and IL-6 (10 ng/mL) were added to the cell culture on day 0. For low serum low glucose (LSLG) medium treatment, cultured cells were first harvested from the plate and washed twice with RPMI medium to rinse off residual serum and glucose, and then cultured in 5 ml of LSLG medium (glucose-free RPMI supplemented with 1% FBS, 1 g/L glucose, 1× penicillin-streptomycin and 2 mM L-glutamax) in a 15 ml conical tube for 6 hours with or without HC-5404 addition. Cells were harvested and used in the T cell suppression assay.
Mouse T cell suppression assay: Spleens were harvested from C57BL/6 mice. […] T cell proliferation was analyzed by flow cytometry. […] The labeled cells were analyzed on a BD Fortessa cytometer and data was analyzed by FlowJo. […] Data were analyzed using one-way ANOVA with multiple comparison corrected with Dunnett test. *P<0.05; **P<0.01; ***P<0.005, ****P<0.0001 (FIGS. 11A, 11B, and 11C).

The next test relates to HMGB1 in 786-O xenograft. Nature of the test: HMGB1 IHC in 786-O xenografts. As to conditions: 30 mg/kg, compared to vehicle (FIG. 4D). In kind it is in vivo, mouse. On the procedure:
786-O tumor cells were maintained in vitro with MEM medium supplemented with 10% heat inactivated fetal bovine serum and 0.01 mM NEAA, at 37 °C in an atmosphere of 5% CO2. Each mouse was inoculated subcutaneously at the right front region with 786-O tumor cells (5×106) in 0.1 ml of PBS (1:1 matrigel) for tumor development. The randomization for efficacy study began when the mean tumor size reached approximately 200-300 mm^3, preferably to initiate with 250 mm^3. […]
Paraffin sections of tumor samples were stained on slides for HMGB1 using the Abcam antibody (cat #ab18256) and chromogenic DAB staining on Bond Rx (Leica Biosystems). The slides were digitized by Leica AT2 slide scanner with 40× objective. The scanned images were analyzed using custom-written macro in ImageJ/FIJI (NIH) to measure nuclear and non-nuclear signal (FIGS. 4C and 4D).

Another test relates to 786-O RCC xenograft. Nature of the test: 786-O RCC xenograft tumor growth. The class given is in vivo, mouse. The method, then:
Xenograft RCC models were generated as follows: Female NOD.SCID mice (6-8 weeks of age) were injected with A498 RCC cells (5×10^6 cells/mouse), female Balb/c Nude mice (6-8 weeks old) were implanted with 786-O RCC cells (5×10^6 cells/mouse) or Caki-1 RCC cells (6×10^6 cells/mouse), female Athymic Nude-Foxn1nu mice (7-8 weeks of age) were implanted with MFE280 endometrial cells (10×10^6 cells/mouse). Cells were implanted into the flank of animals.
Once tumor tumors reached volume of typically 150-250 mm^3, animals were randomized by tumor volume into the treatment groups of 8 or 10 animals per group. In the single animal trial with RCC PDX models, only one animal per group was enrolled.
Body weight and tumor volume were measured twice weekly. Tumor volume was calculated using the formula [tumor volume (mm^3)=π/6×length×width^2] and plotted as means+SEM. The percentage of tumor growth inhibition was calculated at the end of the study using the formula: […], if ΔT>0, ΔT, mean tumor volume of the drug-treated group on the observation day of the study—mean tumor volume of the drug-treated group on initial day of dosing; ΔC, mean tumor volume of the control group on the observation day of the study—mean tumor volume of the control group on initial day of dosing. Regression was calculated using the formula=100×ΔT/Tinitial, if ΔT<0. Animals with >50% regressions were partial responders. Animals with tumor volume of 0 (no measurable tumor) were considered as complete responders, and animals with <50% tumor regression and 30% growth over the baseline were considered as stable disease. Animals with tumors>30% increase over the baseline were considered progressive disease. The % change in body weight was calculated by the formula (body weight on observation day−body weight on initial day)/body weight on initial day×100%.

Test [2] concerns ATF4 targets in gastric PDX (GAO 114-R19P6). Put plainly: ATF4 target proteins in gastric PDX. In kind it is in vivo, mouse. As to conditions: 7 days, 1 h post-dose (FIG. 81, 82). On the procedure: Samples were put in 500 μL of Novex lysis buffer consisting of 2× Novex Tris-Glycine SDS sample buffer (ThermoFisher LC2676), 1× Phosphatase Inhibitor Cocktail III (Sigma P0044), 1× PhosphataseArrest I (Gbioscience 113P-D), 1×2-mercaptoethanol (Gibco 21985023), 1× Benzonase (EMD Millipore Corp 70746-3), and 1× Protease inhibitor cocktail tablet (Roche/Sigma 11836170001). Samples were homogenized with the Polytron and heated for 10 min at 95 °C. They were then centrifuged at max speed for 10 min and the supernatant was transferred. Protein concentrations of samples were measured using the Pierce 660 nm Protein assay kit (Thermo Scientific 22660) according to the manufacturer's instructions.
Western Blot analysis was performed on the SimpleWestern high-throughput protein analysis platform (ProteinSimple 004-650) according to manufacturer's protocol using a 12-230 kDA Separation Module (ProteinSimple SM-W004) and Total Protein Detection Module (ProteinSimple DM-TP01). Antibodies used were: (Add info for other antibodies used) pPERK (Lilly; 1:50) and PERK (Cell Signaling Technology 5683; 1:200). All protein analytes were normalized to total protein loaded on capillary.
Gastric PDX model (GAO 114-R19P6) PD arm sampled after 7 days, 1 h post-dose.

Consider `Cc1cc(NC(=O)[C@H](O)c2cc(F)cc(F)c2)ccc1-c1cnc(N)c(C(=O)NC(C)C)c1` [HC-5404, (R)-2-amino-5-(4-(2-(3,5-difluorophenyl)-2-hydroxyacetamido)-2-methylphenyl)-N-isopropylnicotinamide], for which, in test [1], the “inhibition of T-cells by MDSCs” value is “reduced inhibition of T-cells”. For the same molecule, the HMGB1 cytoplasmic expression result with HMGB1 in 786-O xenograft is on record as “induced”. For the same molecule, in the test on 786-O RCC xenograft (30 mg/kg PO BID, 28 days (FIG. 22)), the tumor growth inhibition was determined as 48%. Also, the “difference between BID and QD dosing” value with 786-O RCC xenograft (3, 10, 30 mg/kg BID vs 6, 20, 60 mg/kg QD, PO) is listed as “not statistically significant”. Further, the TGI entry in the test on 786-O RCC xenograft (10 and 30 mg/kg PO BID tested, 28 days (FIG. 36)) is “approximately 52%”. Besides, in the test on 786-O RCC xenograft (HC-5404 30 mg/kg PO BID, cabozantinib combination study (FIG. 52)), the TGI % is on record as ~ 61%. For the same molecule, the “dose dependence of antitumor efficacy” value in the test with 786-O RCC xenograft (HC-5404 3, 10 and 30 mg/kg PO BID) was “trend for dose-dependent antitumor efficacy”. In the test with 786-O RCC xenograft (single agent, efficacy arms (FIG. 28)), the “effect on tumor volume” value is given as “modest effects on tumor volume”. Further, the ATF4 target genes entry in test [2] was “induces ATF4 target genes, including ASNS, PSAT1 and other enzymes involved in amino acid metabolism”.
